Data from PMC5854708, “Grass Carp Prolactin Gene: Structural Characterization and Signal Transduction for PACAP-induced Prolactin Promoter Activity” (Scientific Reports, 2018).
Read-outs that look alike come from different tables or passages of the source.

Legend:
[1] = tested on: grass carp PRL promoter (pPRL(−1156).Luc) in αT3-1 cells; assay type: cell-based, grass carp (promoter); rat (αT3-1 cells, as printed); settings: for effect on Forskolin-induced luciferase activity: Forskolin 100 nM
Description: The cells were then cultured for 18 hr recovery before drug treatment. (A) Time course analysis on the effect of oPACAP38 (6–48 hrs) on grass carp PRL promoter activity in αT3-1 cells. (B) αT3-1 cells over-expressed pPRL(−1156).LUC were treated for 24 hrs with increasing doses of oPACAP38. Effects of PACAP and VIP antagonists on PACAP-induced PRL mRNA expression were also investigated. In these experiments, αT3-1 cells over-expressed pPRL(−1156).LUC were challenged with oPACAP38 (10 nM, 24 hr) in the presence or absence of (C) the PACAP antagonist PACAP6-38 (10 nM) or (D) VIP antagonist (4-Cl-D-Phe6, Leu17)VIP (“VIP-R antagonist”, 100 nM).
After 18 h recovery, the cells were incubated with respective drugs. (A) αT3-1 cells over-expressed pPRL(−1156).LUC were treated for 24 hrs with increasing doses of cpt-cAMP (1–100 μM). (B) αT3-1 cells over-expressed pPRL(−1156).LUC were treated for 24 hrs with increasing doses of Forskolin (10–1000 nM). Effects of cAMP/PKA inhibitors on PACAP-induced PRL mRNA expression were then investigated. αT3-1 cells over-expressed pPRL(−1156).LUC were challenged with oPACAP38 (10 nM, 24 hr) in the presence or absence of (C) AC inhibitor MDL12330A (10 μM) or (D) PKA blocker H89 (10 μM).
After 18 h recovery, the cells were incubated with respective drugs. The cells were treated for 24 hr with increasing doses of (A) Ca^2+ ionophore A23187 or (B) L-type VSCC activator Bay K8644. Inhibiting extracellular Ca^2+ entry on PRL mRNA expression in carp pituitary cells was examined. In this study, αT3-1 cells over-expressed pPRL(−1156).LUC were treated with (C) oPACAP38 (10 nM, 24 hrs) or (D) Forskolin (100 nM, 24 hrs) in the Ca^2+-free medium (with different doses of EGTA).
After 18 h recovery, the cells were incubated with respective drugs.

[2] = tested on: PRL promoter / PRL transcript; parameters: method as in PMID 17904137; settings: goldfish; cited from earlier work
Description: (§1) Prolactin (PRL) is a pituitary hormone with diverse function. […] In mammals, transcription of PRL gene is regulated by multiple factors. […] Furthermore, sex steroid ...

[3] = tested on: PRL promoter; parameters: method as in 2 sources, one per row (each row's own in cited_ref): ref 2 = [2]; PMID 15731170; doi:10.1210/me.2004-0111; 2. Liu, J. C., Baker, R. E., Chow, W., Sun, C. K. & Elsholtz, H. P. Epigenetic mechanisms in the dopamine D2 receptor-dependent inhibition of the prolactin gene. Mol Endocrinol 19 , 1904–1917, doi:10. ||| ref 3 = [3]; PMID 1922085; doi:10.1210/mend-5-4-535; 3. Yan GZ Pan WT Bancroft C Thyrotropin-releasing hormone action on the prolactin promoter is mediated by the POU protein pit-1 Mol Endocrinol 1991 5 535 541 10.1210/mend-5-4-535 1922085; settings: mammals, cited from earlier work
Description: as §1

[4] = tested on: PRL gene transcription; parameters: method as in PMID 18006630, PMID 18022314; settings: human; cited from earlier work
Description: as §1

[5] = tested on: PRL gene expression in GH4C1 cells; settings: cited from earlier work
Description: (§2) PACAP and vasoactive intestinal peptide (VIP) are members of the glucagon/secretin peptide family and have been reported to play roles in PRL regulation. […] In contrast to VIP, the biological actions of PACAP on ...

[6] = tested on: PAC1 receptors; settings: cited from earlier work
Description: as §2

[7] = tested on: PRL secretion / PRL gene expression; settings: mammals, cited from earlier work
Description: as §2

[8] = 24-hr, A23187 1–100 nM or Bay K8644 1–100 nM, n = 4
[9] = 24 hr, MDL12330A 10 μM or H89 10 μM, n = 4
[10] = oPACAP38 10 nM, 24 hr, MDL12330A 10 μM or H89 10 μM, n = 4
[11] = calmidazolium 1 μM or KN62 5 μM, oPACAP38 10 nM, 24 hrs, n = 4
[12] = calmidazolium 1 μM, W7 30 μM, W13 100 μM or KN62 5 μM, n = 4
[13] = LY294002 10 μM or Wortmannin 10 nM, n = 4
[14] = U0126, PD169316 or SP600125, each 10 μM, n = 4
[15] = U0126, PD169316 or SP600125, each 10 μM, oPACAP38 10 nM, 24 hrs, n = 4
[16] = W7 30 μM or W13 100 μM, pre-treated 15 mins, PACAP 100 nM (Supplementary Fig. 4), 24 hours, n = 4

NCCOB(c1ccccc1)c1ccccc1 [2-APB, 2-aminoethoxydiphenyl borate]
effect on PACAP-stimulated luciferase activity [1]: effectively abolished

CNc1ccc2oc(C[C@H]3O[C@@]4(CC[C@H]3C)O[C@H]([C@H](C)C(=O)c3ccc[nH]3)[C@H](C)C[C@H]4C)nc2c1C(=O)O [A23187]
effect on luciferase activity expression [1, 8]: effective in stimulating luciferase activity expression

COC(=O)C1=C(C)NC(C)=C([N+](=O)[O-])C1c1ccccc1C(F)(F)F (centres unmarked) [Bay K8644]
effect on luciferase activity expression [1, 8]: effective in stimulating luciferase activity expression

NCCc1ccc(O)c(O)c1 [Dopamine]
effect on PRL promoter activity [2]: inhibition of PRL promoter activity | effect on PRL promoter activity ([3]; via dopamine D2 receptor activation): inhibitory effect on PRL promoter activity

O=C(O)CN(CCOCCOCCN(CC(=O)O)CC(=O)O)CC(=O)O [EGTA]
effect on Forskolin-induced luciferase activity ([1]; EGTA 1–4 mM, Ca^2+-free medium, 24 hrs, n = 4): suppressed dose-dependently | effect on PACAP-induced luciferase activity ([1]; EGTA 1–4 mM, Ca^2+-free medium, oPACAP38 10 nM, 24 hrs, n = 4): suppressed dose-dependently

CCCCCCCCCCCCCCCCCCOCC(COP(=O)([O-])OCC[N+](C)(C)C)OC (centres unmarked) [Edelfosine]
effect on PACAP-stimulated luciferase activity ([1]; Edelfosine 20 μM or 2-APB 100 μM, oPACAP38 10 nM, 24 hrs, n = 4): effectively abolished

C=C[C@@]1(C)CC(=O)[C@]2(O)[C@@]3(C)[C@@H](O)CCC(C)(C)[C@@H]3[C@H](O)[C@H](OC(C)=O)[C@@]2(C)O1 [Forskolin]
effect on luciferase activity expression ([1]; 24 hrs, Forskolin 10–1000 nM, n = 4): dose-dependently increased

CN(C)CCCn1cc(C2=C(c3c[nH]c4ccccc34)C(=O)NC2=O)c2ccccc21 [GF109203]
effect on PACAP-induced luciferase activity ([1]; GF109203 1 μM, oPACAP38 10 nM, 24 hrs, n = 4): not effective in altering PACAP induction

O=S(=O)(NCCNC/C=C/c1ccc(Br)cc1)c1cccc2cnccc12 [H89]
effect on basal luciferase activity [1, 9]: markedly suppressed | effect on oPACAP38-induced luciferase activity [1, 10]: totally abolished

CN([C@@H](Cc1ccc(OS(=O)(=O)c2cccc3cnccc23)cc1)C(=O)N1CCN(c2ccccc2)CC1)S(=O)(=O)c1cccc2cnccc12 [KN62]
effect on PACAP-stimulated luciferase activity [1, 11]: suppressed/totally inhibited | effect on basal luciferase activity [1, 12]: suppressed/totally inhibited

O=c1cc(N2CCOCC2)oc2c(-c3ccccc3)cccc12 [LY294002]
effect on basal luciferase activity [1, 13]: effective in reducing | effect on PACAP-induced luciferase activity ([1]; LY294002 10 μM, pre-treated 15 mins, PACAP 100 nM (Supplementary Fig. 4), 24 hours, n = 4): effective in reducing

Cl.c1ccc(C2CCCC2NC2=NCCCCCCCCCCC2)cc1 (centres unmarked) [MDL12330A]
effect on basal luciferase activity [1, 9]: markedly suppressed | effect on oPACAP38-induced luciferase activity [1, 10]: totally abolished

Oc1c2ccccc2c2c3c(cccc13)N=N2 [SP600125]
effect on basal luciferase activity [1, 14]: not affected | effect on PACAP-induced luciferase activity [1, 15]: not affected

N#CC(=C(/N)Sc1ccccc1N)/C(C#N)=C(/N)Sc1ccccc1N [U0126]
effect on basal luciferase activity [1, 14]: not affected | effect on PACAP-induced luciferase activity [1, 15]: not affected

COc1ccc2c(c1)CC[C@@H]1[C@@H]2CC[C@]2(C)[C@@H](NCCCCCCN3C(=O)C=CC3=O)CC[C@@H]12 [U73122]
effect on PACAP-stimulated luciferase activity ([1]; U73122 10 μM, pre-treated 15 mins, PACAP 100 nM (Supplementary Fig. 4), 24 hours, n = 4): effectively abolished

NCCCCCCNS(=O)(=O)c1cccc2c(Cl)cccc12 [W7]
effect on PACAP-stimulated luciferase activity [1, 16]: suppressed/totally inhibited | effect on basal luciferase activity [1, 12]: suppressed/totally inhibited

NCCCCNS(=O)(=O)c1ccc2c(Cl)cccc2c1 [W13]
effect on PACAP-stimulated luciferase activity [1, 16]: suppressed/totally inhibited | effect on basal luciferase activity [1, 12]: suppressed/totally inhibited

COC[C@H]1OC(=O)c2coc3c2[C@@]1(C)C1=C(C3=O)[C@@H]2CCC(=O)[C@@]2(C)C[C@H]1OC(C)=O [Wortmanin]
effect on basal luciferase activity [1, 13]: effective in reducing | effect on PACAP-induced luciferase activity ([1]; Wortmannin 10 nM, oPACAP38 10 nM, 24 hrs, n = 4): effective in reducing

Clc1ccc(C(c2ccc(Cl)cc2)n2cc[n+](CC(OCc3ccc(Cl)cc3Cl)c3ccc(Cl)cc3Cl)c2)cc1 (centres unmarked) [calmidazolium]
effect on PACAP-stimulated luciferase activity [1, 11]: suppressed/totally inhibited | effect on basal luciferase activity [1, 12]: suppressed/totally inhibited

Nc1ncnc2c1nc(Sc1ccc(Cl)cc1)n2C1OC2COP(=O)(O)OC2C1O (centres unmarked) [cpt-cAMP, 8-(4-chlorophenylthio)-cAMP]
effect on luciferase activity expression ([1]; 24 hrs, cpt-cAMP 1–100 μM, n = 4): dose-dependently increased

COC(=O)C1=C(C)NC(C)=C(C(=O)OC)C1c1ccccc1[N+](=O)[O-] [nifedipine]
effect on Forskolin-induced luciferase activity ([1]; nifedipine 10 μM, 24 hrs, n = 4): effective in attenuating | effect on PACAP-induced luciferase activity ([1]; nifedipine 10 μM, oPACAP38 10 nM, 24 hrs, n = 4): effective in attenuating

CO[C@H]1C[C@@H]2CC[C@@H](C)[C@@](O)(O2)C(=O)C(=O)N2CCCC[C@H]2C(=O)O[C@H]([C@H](C)C[C@@H]2CC[C@@H](O)[C@H](OC)C2)CC(=O)[C@H](C)/C=C(\C)[C@@H](O)[C@@H](OC)C(=O)[C@H](C)C[C@H](C)/C=C/C=C/C=C/1C [rapamycin]
effect on PACAP-induced luciferase activity ([1]; rapamycin 20 nM, oPACAP38 10 nM, 24 hrs, n = 4): attenuated

PACAP6–38
effect on oPACAP38-induced PRL promoter activity ([1]; oPACAP38 10 nM, 24 hr, antagonist PACAP6–38 100 nM (text; legend: 10 nM), n = 4): blocked

estrogen
effect on PRL gene transcription [4]: potent stimulator for PRL gene transcription

thyrotropin-releasing hormone [TRH]
effect on PRL promoter activity [2]: suppressed | effect on PRL transcript expression [2]: suppressed | effect on PRL promoter ([3]; via pit-1 transactivation): stimulate PRL promoter

vasoactive intestinal peptide [VIP]
effect on PRL gene expression [5]: stimulatory effects | affinity/specificity at PAC1 receptors [6]: little/very low affinity | effect on PRL secretion ([7]; ref 8): stimulatory effects | effect on PRL gene expression ([7]; ref 9): stimulatory effects
